The data set can be described thus: Drug analysis of abuser in different hair segments by HPLC-Chip-MS/MS. It counts as in vivo, human. An excerpt:
Parent drug and its metabolites normally appear in hair after 5-7 day once administered. Hair normally grows at 0.75-1 cm/month. Drug taking habit or history can be reflected by analysis in different hair segments.
Hair specimens were collected and cut into different lengths. With the application of different conditions in Examples 1-8, drug distribution in different hair segments was illustrated (FIGS. 29 and 30).

[1] abbreviates: Hair segment sample no. 1, hair length 0-4 cm, time 0-3 month.
The mark [2] stands for this setting: Hair segment sample no. 2, hair length 4-8 cm, time 3-6 month.
The mark [3] stands for this setting: Hair segment sample no. 3, hair length 8-12 cm, time 6-9 month.
Setting [4] is: Hair segment sample no. 4, hair length 12-16 cm, time 9-12 month.
Where [5] appears, read: Hair segment sample no. 5, hair length 16-20 cm, time 12-15 month.
Where [6] appears, read: Hair segment sample no. 6, hair length 20-24 cm, time 15-18 month.
Where [7] appears, read: Hair segment sample no. 7, hair length 24-28 cm, time 18-21 month.
[8] abbreviates: Hair segment sample no. 8, hair length 28-32 cm, time 21-24 month.

`CN[C@@H](C)Cc1ccccc1` [Methamphetamine]: the “Concentration in hair segment” value is, setting by setting: under setting [1], 117.6 pg/mg; under setting [2], 263.6 pg/mg; under setting [3], 198.2 pg/mg; under setting [4], 201.1 pg/mg; under setting [5], 107.3 pg/mg; under setting [6], 920 pg/mg. The “Concentration in hair segment” value was found to be 156.3 pg/mg under setting [7] and 273.5 pg/mg under setting [8].

For the compound Methadone, the “Concentration in hair segment” value by setting is: under setting [1], 18.7 pg/mg; under setting [2], 18.3 pg/mg; under setting [3], 18.4 pg/mg; under setting [4], 18.3 pg/mg; under setting [5], 18.3 pg/mg; under setting [6], 18.3 pg/mg. Besides, the “Concentration in hair segment” value is, setting by setting: under setting [7], 18.3 pg/mg; under setting [8], 18.4 pg/mg.

(Values after patent US20120220039A1, “METHOD AND SYSTEM FOR DETECTING RESIDUAL POISON IN HUMAN BODY” (THE HONG KONG UNIVERSITY OF SCIENCE AND TECHNOLOGY, priority 2009, published 2012).)
